# According to patent US20090304714A1, “IKKi Inhibitor Therapies and Screening Methods, and Related IKKi Diagnostics” (The Regents of the University of Michigan, priority 2008, published 2009):
# What was measured:
# 3T3L1 adipocytes = assay: Insulin-stimulated 2-deoxyglucose uptake in 3T3L1 adipocytes; type: cell-based, mouse; design: inhibitory effects of LPS on insulin-stimulated glucose uptake / direct effect on insulin-stimulated or basal transport: dose or concentration left out as unconfirmed
# Experimental: Cell culture and transfection. 3T3-L1 fibroblasts (American Type Culture Collection) were cultured and differentiated as described previously [Reed & Lane, Proc Natl Acad Sci USA. 1980 January; 77(1):285-9, herein incorporated by reference]. Cells were routinely used within 7 days upon completion of the differentiation process, with only cultures in which >95% of cells displaying adipocyte morphology being used. CHO-IR and COS-1 cells were maintained in Dulbecco modified Eagle medium (Gibco) containing 10% foetal bovine serum. CHO-IR and 3T3-L1 cells were routinely transfected with plasmids and siRNA by electroporation as described previously (Inoue, M., et al., (2006) Mol. Biol. Cell 17, 2303, Baumann, et al., (2000) Nature 407, 202, both of which are herein incorporated by reference). Cos-1 cells were transfected using FuGene6 (Roche Diagnostics) in accordance with the manufacturer's protocol.
# Glucose uptake analysis. 3T3-L1 adipocytes grown in 12-well plates were subjected to a glucose uptake assay as described previously [Van den Berghe et al., Mol Cell Biol. 1994 April; 14(4):2372-7, herein incorporated by reference] using 0.075 uCi/well 2-deoxy-D-[^14C]glucose (GE Health). Samples were counted in an LS6500 Multi-Purpose Scintillation Counter (Beckman Coulter) using BCS Biodegradable Counting Scintillant (GE Health).
# [1] = target: human insulin receptor Ser^1035Ala mutant (UniProt P06213)
Molecule,direct effect on insulin-stimulated or basal transport (3T3L1 adipocytes; 3T3L1 adipocytes),LPS decreases in insulin stimulated glucose uptake (3T3L1 adipocytes; 3T3L1 adipocytes treated with 50 nM inhibitor prior to LPS and insulin (FIG. 6b)),"inhibitory effects of LPS on insulin-stimulated glucose uptake (3T3L1 adipocytes; 3T3L1 adipocytes treated, then LPS, followed by insulin)",incorporation of radioactive phosphate into the receptor [1]
"COc1cc2ncn(-c3cc(OCc4ccccc4S(C)(=O)=O)c(C#N)s3)c2cc1OC [5-(5,6-Dimethoxy-1H-benzimidazol-1-yl)-3-[[2-(methylsulfonyl)phenyl]methoxy]-2-thiophenecarbonitrile]",little direct effect,prevents,prevented,
"wild-type IKKi (ectopically expressed, Example 1)",,,,the Ser^1035Ala substitution blocked the incorporation of radioactive phosphate relative to the wild-type receptor when co-expressed with IKKi
